The values that follow come from patent US8173693B2, “Benzenesulfonamide derivatives and pharmaceutical composition thereof” (Purzer Pharmaceutical Co., Ltd., priority 2010, dated 2012).

In data set [1] the test system is Human colorectal adenocarcinoma HT-29 cells. Kind of data set: MTT assay. The data set is classed as cell-based. The settings on record: 72 hr. Here is the method: (§1) Human Bladder Cancer TSGH cells, Human hepatoblastoma HepG2 cells, Human colorectal adenocarcinoma HT-29 cells, human nasopharyngeal carcinoma KB cells, Human gastric adenocarcinoma AGS cells, Human breast carcinoma MCF-7 cells, lung carcinoma A549 cells, and Human prostate carcinoma PC-3 cells were used in the preliminary cytotoxicity assays of the benzenesulfonamide derivatives of the present invention, and the inhibition activity against the tumor cells was evaluated.
(§2) All cell lines were maintained in RPMI 1640 supplied with 10% fetal bovine serum and maintained in a humidified chamber at 37° C. containing 5% CO2. Then, all cell lines were treated with compounds for 72 hr and subsequently incubated with 0.4 mg/mL of MTT at 37° C. for 2 hr. The medium was removed, and DMSO was added to dissolve MTT precipitate. Cell proliferation was determined by measuring the optical density at 540 nm using a Thermomax microplate reader (Molecular Devices, Sunnyvale, Calif.), and the IC50 values of the benzenesulfonamide derivatives of the present invention were calculated.

Data set [2] relates to Human Bladder Cancer TSGH cells. Kind of data set: MTT assay. The data set is classed as cell-based. The settings on record: 72 hr. As to the method:
as §1, §2
(Formazan colour is commonly taken as a measure of viable cells.)

Data set [3] deals with human nasopharyngeal carcinoma KB cells. Put plainly: MTT assay. Format: cell-based. As to conditions: Homo sapiens, MTT assay; for IC50: KB, 72 hr; for inhibition at 20 µM: KB cells, read-out: Percentage of tumor cells inhibited by 20 μM. As to the method:
as §1, §2

Data set [4] concerns Human hepatoblastoma HepG2 cells. Put plainly: MTT assay. Format: cell-based. The settings on record: 72 hr, read-out: IC50 HepaG2. Here is the method:
as §1, §2

`Cc1ccc(C)c2c1[nH]c1c(NS(=O)(=O)c3ccccc3)cccc12` [Compound 6a, N-(5,8-Dimethyl-9H-carbazol-1-yl)benzenesulfonamide] showed a melting point of 237 to 238 °C. The compound also displayed an IC50 in data set [1] of 141 µM. Moreover, in data set [2], half-maximal inhibition (IC50) required 160 µM. Besides, in data set [3], the IC50 was more than 20 µM and the inhibition at 20 µM is 32%. Besides, the IC50 in data set [4] was 66.7 µM.
Compound `Cc1ccc(C)c2c1[nH]c1c(NS(=O)(=O)c3ccc(Cl)cc3)cccc12` [Compound 6d, 4-Chloro-N-(5,8-dimethyl-9H-carbazol-1-yl)benzenesulfonamide] showed a melting point of 217 to 218 °C. Inhibition in data set [1] was half-maximal at 81.6 µM (IC50). Further, half-maximal inhibition in data set [2] (IC50) required 90 µM. In data set [3], the IC50 was more than 20 µM and the inhibition at 20 µM stood at 46%. The IC50 in data set [4] was determined as 34.4 µM.
Consider `O=S(=O)(Nc1cccc2cc[nH]c12)c1ccc(Cl)cc1` [Compound 5d, 4-Chloro-N-(1H-indol-7-yl)benzenesulfonamide], for which the melting point was in the range of 163 to 164 °C. Besides, the 50% inhibitory concentration (IC50) in data set [1] amounted to 19.8 µM. The compound also showed an IC50 in data set [2] of 35.6 µM. The compound also had an IC50 in data set [3] of 20 µM. In data set [4], the IC50 worked out at 14 µM.
Regarding `O=[N+]([O-])c1ccc(S(=O)(=O)Nc2cccc3cc[nH]c23)cc1` [Compound 5e, N-(1H-Indol-7-yl)-4-nitrobenzenesulfonamide], the melting point was 185 to 186 °C. The same compound gave an IC50 in data set [1] of 113 µM. This compound had an IC50 in data set [2] of 95.6 µM. Also, in data set [3], the IC50 is more than 20 µM and the inhibition at 20 µM was determined as 14%. For the same compound, the IC50 in data set [4] turned out to be 46.9 µM.
With `Cc1ccc(C)c2c1[nH]c1c(NS(=O)(=O)c3ccc([N+](=O)[O-])cc3)cccc12` [Compound 6e, N-(5,8-Dimethyl-9H-carbazol-1-yl)-4-nitrobenzenesulfonamide], the melting point lay within 202 to 203 °C. In data set [1], this compound yielded a half-maximal inhibitory concentration (IC50) of 17.6 µM. The compound further showed an IC50 in data set [2] of 40.6 µM. For the same compound, in data set [3], the IC50 is more than 20 µM and the inhibition at 20 µM is 9%. The IC50 in data set [4] came out at 19.8 µM.
`COc1ccc(S(=O)(=O)Nc2cccc3cc[nH]c23)cc1` [Compound 5c, N-(1H-Indol-7-yl)-4-methoxybenzenesulfonamide] yielded a melting point of 161 to 162 °C. Besides, the 50% inhibitory concentration (IC50) in data set [1] came out at 1.7 µM. In addition, in data set [2], the midpoint of inhibition, the IC50, lay at 2.4 µM. In data set [3], this compound registered an IC50 of 3.4 µM. Moreover, in data set [4], the IC50 is 1.9 µM.
The compound `NS(=O)(=O)c1ccc(S(=O)(=O)Nc2cccc3cc[nH]c23)cc1` [Compound 5g, N-(1H-Indol-7-yl)-4-sulfamoylbenzenesulfonamide] displayed a melting point of 215 to 216 °C. In addition, in data set [1], the IC50 came out at 65.9 µM. In data set [2], this compound had an IC50 of 37.5 µM. Besides, in data set [3], the IC50 is more than 20 µM and the inhibition at 20 µM was found to be 12%. Further, the IC50 in data set [4] is 39.2 µM.
Take `O=[N+]([O-])c1ccccc1S(=O)(=O)Nc1cccc2cc[nH]c12` [Compound 5h, N-(1H-Indol-7-yl)-2-nitrobenzenesulfonamide]: the melting point lay within 187 to 188 °C. In data set [1], this compound showed a 50% inhibitory concentration (IC50) of 126 µM. The compound further showed an IC50 in data set [2] of 125 µM. In data set [3], the IC50 was more than 20 µM and the inhibition at 20 µM amounted to 13%. Further, the IC50 in data set [4] amounted to 87.8 µM.
For the compound `Cc1ccc(S(=O)(=O)Nc2cccc3cc[nH]c23)cc1` [Compound 5b, N-(1H-Indol-7-yl)-4-methylbenzenesulfonamide], the melting point is 159 to 160 °C. In data set [1], this compound registered an IC50 of 7.9 µM. This compound displayed an IC50 in data set [2] of 9.4 µM. In data set [3], the IC50 is more than 20 µM and the inhibition at 20 µM came to 39%. Further, in data set [4], the IC50 was 7.9 µM.
Take `Cc1ccc(C)c2c1[nH]c1c(NC(=O)Nc3ccccc3)cccc12` [Compound 14a, 1-(5,8-Dimethyl-9H-carbazol-1-yl)-3-phenylurea]: the melting point fell in the range of 300 to 301 °C.
Take `Cc1ccc(C)c2c1[nH]c1c(NS(=O)(=O)c3ccc(N)cc3)cccc12` [Compound 6f, 4-Amino-N-(5,8-dimethyl-9H-carbazol-1-yl)benzenesulfonamide]: the melting point was 254 to 255 °C. In data set [1], it took 18.7 µM to reach half-maximal inhibition (IC50). In data set [2], this compound showed an IC50 of 39 µM. For the same compound, in data set [3], the IC50 was more than 20 µM and the inhibition at 20 µM is 34%. Further, in data set [4], the IC50 is 16.6 µM.
`COc1cc(S(=O)(=O)Nc2cccc3c2[nH]c2c(C)ccc(C)c23)cc(OC)c1OC` [Compound 6i, N-(5,8-Dimethyl-9H-carbazol-1-yl)-3,4,5-trimethoxybenzenesulfonamide] had a melting point of 205 to 207 °C.
Same read-out and setting: as for `COc1ccc(NC(=O)Nc2cccc3c2[nH]c2c(C)ccc(C)c23)cc1` [Compound 14b, 1-(5,8-Dimethyl-9H-carbazol-1-yl)-3-(4-methoxyphenyl)urea], the figure is 262 to 263 °C; as for `Cc1ccc(C)c2c1[nH]c1c(NS(=O)(=O)c3cc(Cl)c(Oc4ccc([N+](=O)[O-])cc4Cl)c(Cl)c3)cccc12` [Compound 61, 3,5-Dichloro-4-(2-chloro-4-nitrophenoxy)-N-(5,8-dimethyl-9H-carbazol-1-yl)benzenesulfonamide], 249 °C.
With `O=S(=O)(Nc1cccc2cc[nH]c12)c1ccccc1` [Compound 5a, N-(1H-Indol-7-yl)benzenesulfonamide], the melting point was 178 to 179 °C. In data set [1], this compound gave an IC50 of 51.9 µM. In data set [2], half-maximal inhibition (IC50) was put at 7.5 µM. Moreover, in data set [3], the IC50 was more than 20 µM and the inhibition at 20 µM turned out to be 30%. Also, the IC50 in data set [4] came out at 44.7 µM.
The compound `Cc1ccc(C)c2c1[nH]c1c(NS(=O)(=O)c3ccccc3[N+](=O)[O-])cccc12` [Compound 6h, N-(5,8-Dimethyl-9H-carbazol-1-yl)-2-nitrobenzenesulfonamide] displayed a melting point of 202 to 203 °C. In data set [1], this compound returned an IC50 of 17 µM. Half-maximal inhibition in data set [2] (IC50) was put at 37.2 µM. Further, in data set [3], the IC50 is more than 20 µM and the inhibition at 20 µM worked out at 24%. In addition, the IC50 in data set [4] is 21 µM.
As to `Cc1ccc(S(=O)(=O)Nc2cccc3c(/N=N/c4ccccc4)c[nH]c23)cc1` [Compound 7b, 4-Methyl-N-(3-phenylazo-1H-indol-7-yl)benzenesulfonamide], the melting point was 212 to 213 °C. In addition, it took 17.9 µM to reach half-maximal inhibition in data set [1] (IC50). This compound also yielded an IC50 in data set [2] of 16 µM. Besides, in data set [3], the IC50 was more than 20 µM and the inhibition at 20 µM amounted to 35%. The IC50 in data set [4] came out at 30.8 µM.
In the case of `Cc1ccc(S(=O)(=O)Nc2cccc3c2[nH]c2c(C)ccc(C)c23)cc1` [Compound 6b, N-(5,8-Dimethyl-9H-carbazol-1-yl)-4-methylbenzenesulfonamide], the melting point was 185 to 186 °C. Also, the half-maximal inhibitory concentration (IC50) in data set [1] stood at 1.1 µM. The compound also had an IC50 in data set [2] of 2.1 µM. Besides, in data set [3], half-maximal inhibition (IC50) required 2.5 µM. Further, in data set [4], the IC50 was determined as 1.7 µM.
The compound `Cc1ccc(C)c2c1[nH]c1c(NS(=O)(=O)c3ccc(S(N)(=O)=O)cc3)cccc12` [Compound 6g, N-(5,8-Dimethyl-9H-carbazol-1-yl)-4-sulfamoylbenzenesulfonamide] yielded a melting point of 290 to 291 °C. In data set [1], the IC50 is 124 µM. In data set [2], the IC50 worked out at 80.7 µM. This compound also returned an IC50 in data set [3] of 19.1 µM. In addition, the IC50 in data set [4] is 139 µM.

Usually IC50 stands for the concentration that gives 50% inhibition. The term melting point denotes the temperature of the solid-liquid transition.
